# Entries after “also recorded” stand apart in the source; their conditions may differ.
# What was measured:
# MAT-Lu cells [1] = assay: Boyden chamber motility assay, MAT-Lu cells; type: cell-based, rat
# Method: Boyden Chamber Motility Assays. Disposable transwells (Coming Costar, Cambridge, Mass.) of 6.5 mm diameter and 8 μm pore size were coated with 5 μg/ml laminin on both sides. The membranes were washed twice with Hank's balanced salt solution (HBSS) and then pre-incubated with growth medium containing 10% fetal bovine serum. Trypsinized cells (5×10^4) were plated into the upper well. After 1 hour the upper chamber was washed twice with HBSS, filled with serum-free medium and moved to a new lower chamber, also filled with serum-free medium, with or without thrombin and/or 0.75 nM insulin-like growth factor-1 (IGF-1). After incubation for 4 hrs, cells on the membrane were fixed and stained with a Diff-Quick kit (Baxter Scientific Products). Cells on the upper side were scraped off, the membranes were removed, mounted onto microscope slides and analyzed. Each filter was scanned twice at right angles under the light microscope with a 16×phase contrast objective lens. A continuous series of 20 frames for each filter was digitized using a high-resolution CCD camera (Kodak) and stored in a Power Macintosh computer. The two most peripheral pairs of frames from each scan were deleted so that 12 frames were analyzed for each filter. Cells that had crossed the membrane were counted and tabulated. The sum of the cells counted in the twelve frames was an individual data point.
# growth cone PLC = assay: Phospholipase C assay (DG release) in GCPs; type: biochemical, rat; conditions: IGF-1, low nanomolar range; 10 μM free Ca^2+
# Text: (§1) All assays were run in triplicate.
# growth cone PLA2 = assay: PLA2 assay in growth cone particles (GCPs); type: biochemical, rat
# Method: Growth Cone Particle (GCP) Isolation. GCPs were prepared as described by Pfenninger et al. (1983) and modified by Lohse et al., Dev. Brain Res., 96:38-96 (1996). Briefly, 18-day fetal brains were homogenized in approximately 8 volumes of 0.32 M sucrose containing 1 mM MgCl2, 2 mM TES buffer, pH 7.3, and 3 μM aprotinin. A low-speed supernatant (1,660 g×15 min) was loaded onto a discontinuous sucrose density gradient With steps of 0.83 M and 2.66 M sucrose containing MgCl2 and TES. The gradients were spun to equilibrium at 242,000 g for 40 min in a vertical rotor (Vti50, Beckman). The GCP fraction at the 0.32/0.83 M sucrose interface was collected and used for the experiments described below.
# as §1
# cPLA2 = assay: PLA2 activity (14C-AA release) in MAT-Lu cells; type: biochemical, rat; conditions: 5 mM dithiothreitol
# Method: MAT-Lu cells were plated at a density of 0.5×10^6 cells per flask (T-75) and grown as detailed above to approximately 25% confluency. On the day before the experiments, the serum level in the medium was dropped to 1%. Cells were fed with fresh 1% serum-medium 4 hrs prior to harvest. For harvesting, cells were rinsed with Ca^++,Mg^++-free HBSS, covered with 2 ml cold Ca^++-free modified Krebs buffer (220 mM sucrose, 50 mM NaCl, 5 mM KCl, 22 mM HEPES, 10 mM glucose. 1.2 mM NaH2PO4 and 1.2 mM MgCl2, pH 7.3), and placed on ice. Cells were scraped off, pelleted for 5 min at 200 rpm and re-suspended in a minimal volume of Krebs buffer. Aliquots were used to determine protein concentration (Biorad Assay) and phopholipase activity. To measure PLA2 activity 10-12 μg of cell protein was incubated with or without thrombin for 10 min on ice, ^14C-AA-labeled phospholipid substrate (7 μM. 40-60 mCi/mmol) was added, and the mixture was transferred to 37° for 20 min. The reaction was stopped by adding cold cliloroform/methanol (1:2 v/v). Lipid extraction followed by thin-layer chromatography (Negre-Aminou et al., J Neurochem 67:2599-2608 (1996)) isolated the reaction product (identified by co-migration with AA standard), which was then scraped off the plates and analyzed in a scintillation spectrometer (Beckman). In some experiments, especially those involving ^14C-AA-phosphatidylinositol as substrate, the diacylglycerol-containing band (identified by co-migration of standard) also was scraped and counted in order to measure phospholipase C (PLC) activity.
# 12(S)-HETE receptor = conditions: Liu et al. 1995; Herbertsson and Hammarstrom 1992; cited from earlier work
# [2] = tested on: high motility (MAT-Lu, MAT-LyLu and AT-3) Dunning carcinoma cells; assay: Pseudopod length assay, high-motility Dunning carcinoma cells; type: cell-based, rat
# Method: (§2) Pseudopod Morphometry. To study the effects of various agents on pseudopods on a short-term basis, we measured pseudopod lengths. Cells plated in 35-mm diameter dishes at low density (1×10^4 per dish) were incubated overnight, tie medium was changed, and the experiments were run four hours later. First, cultures were shifted to serum-free medium, which was replaced one hour later by serum-free medium with or without the various agents (thrombin, AA or HETEs). Care was taken to avoid heat and light inactivation of the eicosanoids. Culture dishes were placed on a Zeiss inverted microscope equipped with a heated stage and viewed with a 16×phase contrast objective lens. Randomly selected fields of the cultures, containing generally about 20 cells each, were recorded, digitized and stored in the computer at the onset of the experiment and at different times thereafter.
# In some cases, individual cells were monitored over different periods of time immediately after introduction of the reagent, either by mixing it into the medium or by applying it locally to one end of the cell. […] Cell morphology was recorded, and the captured images were analyzed with a Power Macintosh computer using NIH Image. Cell process length was measured from the center of the nucleus to the end of the process. […]
# protein kinase C (PKC) = assay: MARCKS phosphorylation by PKC in isolated GCPs; type: biochemical, rat; conditions: 30 sec @ 30° C.; 10^−6M or less free Ca^2+
# Text: FIG. 7A. Thrombin stimulates MARCKS phosphorylation in a 12-LOX-dependent manner. FIG. 7B. 12(S)-HETE stimulates MARCKS phosphorylation by PKC in isolated GCPs. […] Polypeptides were resolved by SDS-PAGE. MARCKS phosphorylation was quantified by phosphorimaging.
# MAT-Lu cells [3] = assay: Pseudopod morphometry (pseudopod length assay), MAT-Lu cells; type: cell-based, rat
# Method: as §2
# (§3) In some cases, individual cells were monitored over different periods of time immediately after introduction of the reagent, either by mixing it into the medium or by applying it locally to one end of the cell. Local application was done with a “puffer” system that expels microliter amounts of the desired solution from a micromanipulator-controlled micropipette tip. Cell morphology was recorded, and the captured images were analyzed with a Power Macintosh computer using NIH Image. Cell process length was measured from the center of the nucleus to the end of the process. Characterization of the frequencies of pseudopod lengths, at a fixed time for each of a sequence of concentrations of reagent, utilized a gamma regression model with an inverse quadratic linear predictor (McCullagh and Nelder, Generalized Linear Models 2d ed., pp. 291-292 (Chapman & Hall, 1989), separately fit to each concentration data set. Although no formal goodness-of-fit tests were carried out, in virtually every case there was good visual representation of the pattern of response (see FIG. 14). Most data, however, are shown as whisker-box plots, where the center point represents the 50%, the ends of the box the […] and 75%, and the “whiskers” the 5% and 95% quantiles (e.g., FIG. 11). Statistical comparisons of pseudopod lengths for different treatments were done by standard non-parametric techniques (Wilcoxon Rank Sum or Kruskal-Wallis Tests), as judged appropriate. Polynomial curve fittings were done by standard least-squares techniques. Statistical analyses and graphing were done with the use of SAS procedures: Reg, Phreg, Nparlway and Plot (SAS institute Inc., Cary, N.C.).
# AT-2 cells = assay: Pseudopod length / retraction assay, AT-2 cells; type: cell-based, rat; conditions: for pseudopod retraction response of AT-2 cells: AA even at 10^−1M
# Method: as §2, §3
# [4] = tested on: growth cones in cultures of rat cerebral cortex; assay: Growth cone collapse assay in cortical neuron culture; type: cell-based; conditions: thrombin 100 nM; TRAP (100 mM); 12(S)-HETE 10^−7 M
# Method: Neuron Culture. Cerebral cortices were dissected from embryonic day 18 Sprague-Dawley rats, cut into explants of less than 1 mm^3 and cultured on either poly-D-lysine-coated coverglass (Assistent) or poly-D-lvsine-coated tissue culture plastic. After 24 hours in B27 neurobasal medium (NB) supplemented with 10% fetal bovine serum, cultures were switched to serum-free B27/NB. The cultures were incubated at 37° C. in 5% CO2 in air. Sprouting neurons were observed readily on day 1. On day 2 or 3, long neurites were present, and the cultures were used for collapse experiments.
# Actin Staining. After experimentation, cultures were fixed by slow infusion of fixative (4% paraformaldehyde in 0.1 M phosphate buffer, pH 7.4) into the culture dishes over 10 min (Pfenninger and Maylié-Pfenninger, J. Cell Biol. 89:53-546 (1981)). Thereafter, the fixative was removed by rinsing three times with phosphate-buffered saline (PBS) containing 1 mM glycine. Cultures were then blocked with PBS/1% bovine serum albumin (BSA) and permeabilized by incubation in 0.02% Triton X-100 for 5 min. After three washes in PBS/BSA, cultures were incubated with Texas-Red-conjugated phalloidin for 30 min. Unbound phalloidin was washed away by two PBS rinses, after which the coverglasses were mounted in Slow-Fade Light on microscope slides. Images were recorded on 35 mm film using a Zeiss Axiophot fluorescence microscope equipped with epiillumination.
# Growth Cone Collapse Assay. Prior to repellent factor treatment, some of the day 2-3 explant cultures were pre-incubated (at 37° C.) with inhibitor or vehicle control (dimethylsulfoxide or ethanol) for 30-60 min. Cultures were then challenged with a repellent factor or vehicle control for 1-30 min. In some experiments, live cultures were photographed with a Zeiss IM 35 inverted photo microscope equipped with a stage heater, while in others cultures were fixed (as above) after 7 minutes of repellent factor treatment. Growth cone collapse was assessed quantitatively in aldehyde-fixed cultures by grading the degree of collapse in a large number of randomly selected growth cones.
# PKC γ = PKC γ (Rattus norvegicus, UniProt P63319); conditions: Naor et al. 1988; cited from earlier work
compound,measurement,setting,value
"IGF-1: insulin-like growth factor-1, positive chemotactic factor",Mat-Lu cells crossing filter in % of control +/− SEM,"MAT-Lu cells [1]; IGF-1 (0.75 nM), 4 hr, thrombin 200 nM, CDC 126 nM",184 +/− 15 % of control
same,enhancement of MAT-Lu migration across laminin-coated membrane,"MAT-Lu cells [1]; IGF-1 in the lower chamber, 4 hr",about 1.8 fold
same,increase in MAT-Lu migration,MAT-Lu cells [1]; four-hour assays,about 80%
same,stimulation of DG release in GCPs,growth cone PLC,approximately two-fold
same,stimulation of AA release from PI,"growth cone PLA2; IGF-1, low nanomolar range, 10 μM free Ca^2+",about 1.7 fold
same,net activity (pmol/min/mg protein),"growth cone PLA2; Table 3c, GCPs, substrate PI, BDNF 100, IGF-1 0.75, insulin 1, thrombin 200 nM, control 159 ± 6.2",177 ± 14.5 pmol/min/mg protein
"O[C@H](CS)[C@H](O)CS (racemic) [DTT, dithiothreitol]",effect of reducing agent on measured PLA2 activity,cPLA2,did not significantly inhibit the measured PLA2 activity
same,"net activity (pmol/min/mg protein), 50 nM DTT","growth cone PLA2; Table 3b, GCPs, substrate PI, thrombin 100 nM or control",66.0 ± 4.7 pmol/min/mg protein
"CCCCC/C=C\C[C@H](O)/C=C/C=C\C/C=C\CCCC(=O)O [12(S)-HETE, 12(S)-hydroxyeicosatetraenoic acid]",Kd,12(S)-HETE receptor,1 nM
same,time required for saturation,12(S)-HETE receptor,90 to 120 min
same,concentration at peak of pseudopod retraction,[2]; 15-min incubation,10^−11 to 10^−10 M
same,concentration at peak of MARCKS and GAP43 phosphorylation (biphasic),protein kinase C (PKC),about 10^−10 M
same,time until pseudopod shortening nearly complete for most cells,MAT-Lu cells [3]; 10^−10M by medium replacement,about 15 min
same,time at which pseudopod lengths reach a minimum,"MAT-Lu cells [3]; 10^−10 M by medium replacement, 73 pseudopods",about 17 min
same,length reduction for the median pseudopod length versus control,"MAT-Lu cells [3]; at 10^−11 and 10^−10 M, 15 min, p<0.0001",> 45%
same,time until pseudopod absorbed completely into the cell,"MAT-Lu cells [3]; local application, 10^−10M",about 15 min
same,onset of pseudopod detachment and shortening,"MAT-Lu cells [3]; local application, 10^−10M, about 10 μm from cell process",≤ 1 min
same,effect on AT-2 pseudopod length,AT-2 cells; 10^−11M,seems to increase pseudopod length
same,pseudopod retraction response of AT-2 cells,AT-2 cells,retraction was not observed
same,"growth cone collapse, agent alone",[4],mimics the effects of thrombin and TRAP; also recorded: does indeed cause growth cone collapse
"CCCCC/C=C\C/C=C\C/C=C\C/C=C\CCCC(=O)O [AA, arachidonic acid]",pseudopod response to AA,[2]; all three high-motility cell types,responded to AA in the manner described for MAT-Lu cells
same,concentration at peak of biphasic PKC γ response,PKC γ,12 µM
same,effect of agent alone on pseudopod length,MAT-Lu cells [3]; typically 15 min exposure,caused significant but reversible reduction of pseudopod length; also recorded: mimics the thrombin-induced length reduction; also recorded: causes statistically significant pseudopod shortening
same,pseudopod retraction response of AT-2 cells,AT-2 cells,almost completely insensitive

# Source: patent publication US6566047B1, “Method for identifying neurite-growth promoting agents” (The Regents of the University of Colorado, priority 1998, dated 2003)
